Reference: paper PMC11802874, “The hypolipidemic effect of MI-883, the combined CAR agonist/ PXR antagonist, in diet-induced hypercholesterolemia model” (Nature Communications, 2025)
Several values for one entry are separate records, joined by “and”; a condition that tells them apart may be missing. Equal values may be shown once. Entries after “also recorded” stand apart in the source; their conditions may differ.

Key:
[1] = test system: PXB-mouse humanized liver mice (human hepatocytes); assay: PXB-mouse humanized liver mice study; type: in vivo; set-up: key to BW: body weight in g; Cho / CHO in LDL / CHO in HDL / CHO in VLDL / CHO in Chylom / TG / TG in LDL / TG in HDL / TG in VLDL / TG in Chylo / rel LW: unit not given here
Experimental: PXB-mouse® are mice with background genotype: cDNA-uPAwild/+/SCID [cDNA-uPAwild/+: B6;129SvEv-Plau, SCID: C.B-17/Icr-scid /scid Jcl]. Mice contain human hepatocytes with an estimated replacement index of 70% or more in the liver, which is calculated based on the blood concentration of human albumin (h-Alb). Human hepatocytes for the experiment were obtained from BD195 (Corning Incorporated, Tewksbury, MA, USA).
Male mice (n = 5 per group) were used for the experiments with the following characteristics: 19 to 23 weeks old on Day 0, body weights on Day 0 (19.3 to 22.3 g), and blood h-Alb Level (from 9.1 to 15.0 mg/mL).
MI-883 was applied in the following vehicle: corn oil (90%)/DMSO (5%)/PEG30 (5%) formulation of MI-883 2.5 mg/kg (1.5 mL) to treated animals. The same vehicle was used in the control group. MI-883 was applied via p.o. gavage using disposable plastic sondes (Fuchigami Kikai Co., Kyoto, Japan) at the dose of 2.5 mg/kg every day ([…] -day 0-Day 7).
The target volume of blood (200 μL) was collected from all subject animals under isoflurane anesthesia via the retro-orbital plexus/sinus using calibrated pipettes (Drummond Scientific Company, PA, USA) at each time point after 4 h of fasting. Isoflurane inhalation solution was also used at the terminal blood sampling. The livers were snap-frozen in two or more pieces in one tube in liquid nitrogen. These frozen liver samples were stored at −80 °C. Urine was directly collected from the urinary bladder using a syringe. Bile was directly collected from the gallbladder using a syringe.
Serum h-ALT1 concentration was determined based on an Enzyme-Linked ImmunoSorbent Assay (ELISA) developed by the Institute of Immunology Co., Ltd (Tokyo, Japan) (for details see Supplementary, Chapter 11).
The clinical chemistry analyzer (BioMajestyTM Series JCA-BM6050, JEOL Ltd., Tokyo, Japan) was used to measure the blood h-Alb. LipoSEARCH to determine the serum level of total cholesterol, triglyceride, chylomicron, VLDL, LDL, and HDL was performed by SkyLight Biotech (Akita, Japan). Serum h-ALT1 concentration was determined based on an Enzyme-Linked ImmunoSorbent Assay (ELISA) developed by the Institute of Immunology Co., Ltd. (Tokyo, Japan). SpectraMax® ABS Plus Microplate Readers (Molecular Devices LLC, San Jose, CA, USA) were used for this measurement.

Human recombinant CYP2B6 = target: T1, Human recombinant CYP2B6 (Homo sapiens, UniProt P20813); assay: CYP450-Glo CYP2B6 enzymatic activity assay; type: biochemical; conditions: for Inhibition assays, CYP2B6 activity (replicates): log[Agonist]
T1 construct: purchased Promega; host or cells: baculovirus-infected insect cells
T1 sequence (P20813 1-491): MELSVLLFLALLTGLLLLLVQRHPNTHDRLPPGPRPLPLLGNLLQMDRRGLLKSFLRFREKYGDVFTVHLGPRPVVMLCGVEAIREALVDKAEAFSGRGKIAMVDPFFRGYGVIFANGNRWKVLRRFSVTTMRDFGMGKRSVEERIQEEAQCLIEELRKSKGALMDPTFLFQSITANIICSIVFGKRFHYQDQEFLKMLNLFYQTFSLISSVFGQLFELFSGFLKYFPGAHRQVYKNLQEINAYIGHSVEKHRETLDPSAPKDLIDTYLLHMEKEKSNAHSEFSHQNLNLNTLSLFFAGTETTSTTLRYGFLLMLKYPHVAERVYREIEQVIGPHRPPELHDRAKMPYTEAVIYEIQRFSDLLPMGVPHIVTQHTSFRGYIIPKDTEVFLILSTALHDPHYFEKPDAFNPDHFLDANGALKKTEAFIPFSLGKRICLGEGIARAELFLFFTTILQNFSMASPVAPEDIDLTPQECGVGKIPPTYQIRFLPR
From the text: Data are presented as means±S.D. from three independent measurements.

[2] = 2.5 mg/kg per day, one week, n = 5
[3] = FigS15, humanized liver mice, individual animals
[4] = FigS15, plasma total, individual animals
[5] = FigS15, plasma, individual animals
[6] = FigS17, individual animals, relative to control
[7] = humanized Liver mice, human gene, relative to control, individual animals
[8] = humanized Liver mice, mouse gene, relative to control, individual animals

SMILES: NC(=O)c1cc(Cn2cc(-c3c(-c4ccc(Cl)cc4)nc4cc(F)ccn34)nn2)ccc1Cl [MI-883, 2-chloro-5-((4-(2-(4-chlorophenyl)-7-fluoroimidazo[1,2-a]pyridin-3-yl)-1H-1,2,3-triazol-1-yl)methyl)benzamide]
- liver enlargement (LW/BW ratio) in PXB humanized liver mice ([1]; 2.5 mg/kg every day, 7 days): did not observe significant liver enlargement
- proliferative biomarkers MDM2, PCNA, FOXM1 in PXB humanized liver mice ([1]; 2.5 mg/kg every day, 7 days): no significant effects
- human albumin or human ALT (h-ALT1) ([1]; 2.5 mg/kg per day, one week): did not observe any increase
- LDL and HDL cholesterol plasma concentrations in PXB mice [1, 2]: tendency for a decrease in LDL and an increase in HDL
- total cholesterol concentration in PXB mice [1, 2]: did not reach statistical significance
- BW [1, 3]: 21.1 and 21.2 and 18.9 and 21.4
- rel LW [1, 3]: 12.7 and 13.9 and 18.9 and 13.7 and 15.2
- h-ALT1 ([1]; FigS15, plasma biochemistry, individual animals): 32.4 and 23.1 and 36 and 38.8 and 27.9
- Cho [1, 4]: 59.5 and 63.3 and 87.8 and 100.6 and 69.3
- TG [1, 4]: 79.5 and 114.8 and 91.5 and 67.5 and 118.2
- CHO in Chylom [1, 5]: 0.4 and 0.8 and 0.7 and 0.6
- CHO in HDL [1, 5]: 16 and 14.3 and 11.7 and 8 and 13.8
- CHO in LDL [1, 5]: 26.1 and 26.5 and 51.9 and 65.5 and 32.2
- CHO in VLDL [1, 5]: 17 and 21.7 and 23.6 and 26.5 and 22.7
- TG in Chylo [1, 5]: 2.6 and 5 and 3.9 and 2.5 and 3.5
- TG in HDL [1, 5]: 3.2 and 3.7 and 4.2 and 3.6 and 4.3
- TG in LDL [1, 5]: 30.8 and 34.5 and 34.1 and 36.7 and 34
- TG in VLDL [1, 5]: 43 and 71.6 and 49.3 and 24.6 and 76.4
- ABCC4 mRNA (RT-qPCR in humanized liver mice) [1, 6]: 1.98 and 1.27 and 2.64 and 0.98 and 0.66
- CYP2B6 mRNA (RT-qPCR in humanized liver mice) [1, 6]: 7.04 and 2.86 and 13.89 and 12.41 and 7.61
- CYP3A4 mRNA (RT-qPCR in humanized liver mice) [1, 6]: 0.35 and 0.63 and 1.62 and 10.03 and 6.65
- HMGCR1 mRNA (RT-qPCR in humanized liver mice) [1, 6]: 0.23 and 0.46 and 0.39 and 0.62 and 1.11
- HMGCS2 mRNA (RT-qPCR in humanized liver mice) [1, 6]: 3.19 and 1.63 and 2.91 and 2.97 and 2.16
- LDLR mRNA (RT-qPCR in humanized liver mice) [1, 6]: 1.63 and 0.66 and 1.69 and 2.23 and 2.34
- SREBF1 mRNA (RT-qPCR in humanized liver mice) [1, 6]: 0.27 and 0.47 and 0.58 and 0.76 and 1.32
- UGT1A1 mRNA (RT-qPCR in humanized liver mice) [1, 6]: 3.46 and 1.67 and 5.52 and 2.7 and 2.14
- CYP2B6 mRNA in PXB humanized mice ([1]; Supplementary Fig. 17): upregulation
- CYP3A4 mRNA in PXB humanized mice ([1]; Supplementary Fig. 17): have not significantly changed; also recorded: not statistically significant induction
- Foxm1 RT-qPCR (Fig. 7d) [1, 7]: 1.35 and 2.21 and 1.02 and 0.71 and 2.23
- MKI67 RT-qPCR (Fig. 7d) [1, 7]: 0.96 and 0.82 and 1.24 and 0.52 and 0.59
- Foxm1 RT-qPCR (Fig. 7d) [1, 8]: 0.92 and 1.07 and 0.75 and 0.53 and 0.33
- Mki67 RT-qPCR (Fig. 7d) [1, 8]: 1.24 and 0.62 and 1.46 and 0.36 and 0.17
- inhibition of CYP2B6 activity (Human recombinant CYP2B6): does not suppress
- Inhibition assays, CYP2B6 activity (replicates) (Human recombinant CYP2B6; M 0): 129 and 112 and 119
- Inhibition assays, CYP2B6 activity (replicates) (Human recombinant CYP2B6; M 0.5): 112
- Inhibition assays, CYP2B6 activity (replicates) (Human recombinant CYP2B6; M 0.5, listed as MI 883): 104 and 118
- Inhibition assays, CYP2B6 activity (replicates) (Human recombinant CYP2B6; M 1): 114 (2×) and 110
- Inhibition assays, CYP2B6 activity (replicates) (Human recombinant CYP2B6; M -0.5): 102 and 120 and 140
- Inhibition assays, CYP2B6 activity (replicates) (Human recombinant CYP2B6; M -1): 98
- Inhibition assays, CYP2B6 activity (replicates) (Human recombinant CYP2B6; M -1, listed as MI 883): 104 and 111
- Inhibition assays, CYP2B6 activity (replicates) (Human recombinant CYP2B6; M -2): 100
- Inhibition assays, CYP2B6 activity (replicates) (Human recombinant CYP2B6; M -2.5): 100
- Inhibition assays, CYP2B6 activity (replicates) (Human recombinant CYP2B6; M -3): 100
- Inhibition assays, CYP2B6 activity (replicates) (Human recombinant CYP2B6; M -3.5): 100
- Inhibition assays, CYP2B6 activity (replicates) (Human recombinant CYP2B6; M -4): 100
- Inhibition assays, CYP2B6 activity (replicates) (Human recombinant CYP2B6; M -4.5): 100
